Experimental data taken from patent US8580829B2 (Boehringer Ingelheim International GmbH, priority 2010, dated 2013).
pIC50: −log10 of the molar value.

What was measured:
[1] = target: T1, recombinant human FLAP protein (Homo sapiens, UniProt P20292); experiment: FLAP binding assay (Scintillation Proximity Assay, displacement of [125I]L-691,831); conditions: recombinant human FLAP membranes, [125I]L-691,831 probe; read-out: FLAP SPA IC50
T1 construct: made in house; host or cells: Sf9 insect cells (100,000 x g membrane fraction)
T1 sequence (P20292 1-161): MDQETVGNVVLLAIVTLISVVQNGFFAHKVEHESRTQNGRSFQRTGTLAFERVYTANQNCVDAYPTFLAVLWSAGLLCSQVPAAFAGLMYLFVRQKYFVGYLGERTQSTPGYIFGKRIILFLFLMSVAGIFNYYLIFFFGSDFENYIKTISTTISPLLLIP
Outline: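 Membranes came from Sf9 insect cells expressing recombinant human FLAP, collected as the 100,000×g pellet in Tris pH 7.5/MgCl2/EDTA buffer. 5 μg membrane protein was coupled to WGA SPA beads for 1 h.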

[2] = system: synthesis of LTB4 in human whole blood; experiment: human whole blood LTB4 production inhibition assay; assay type: cell-based; conditions: Homo sapiens, heparinized human whole blood, calcimycin 20 μM; read-out: hWB LTB4 IC50
Outline: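 Readout: plasma LTB4 by antibody-based HTRF. Compound added to heparinized human whole blood, 15 min 37° C; calcimycin 20 μM final (PBS pH 7.4), 30 min 37° C; spun 1500×g 5 min, plasma taken.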

SMILES	pIC50 [1]	pIC50 [2]
COc1ccncc1-c1nc(C2(c3ccc(-c4cnc(N)nc4)cc3)CCC2)no1 [Example 168, 5-(4-{1-[5-(4-Methoxy-pyridin-3-yl)-1,2,4-oxadiazol-3-yl]-cyclobutyl}-phenyl)-pyrimidin-2-ylamine]	8.26	6.64
COC(=O)c1ccc(-c2nc(C3(c4ccc(-c5cnc(N)nc5)cc4)CCC3)no2)cn1 [Example 170, 5-(3-{1-[4-(2-Amino-pyrimidin-5-yl)-phenyl]-cyclobutyl}-1,2,4-oxadiazol-5-yl)-pyridine-2-carboxylic acid methyl ester]	8.54	6.41
Nc1ncc(-c2ccc(C3(c4noc(-c5ccncn5)n4)CCC3)cc2)cn1 [Example 171, 5-{4-[1-(5-Pyrimidin-4-yl-1,2,4-oxadiazol-3-yl)-cyclobutyl]-phenyl}-pyrimidin-2-ylamine]	7.85	6.09
CC(C)(O)c1ccc(-c2nc(C3(c4ccc(-c5cnc(N)nc5)cc4)CCC3)no2)cn1 [Example 172]	8.37	6.59
Nc1ncc(-c2ccc(C3(c4noc(-c5ccc[nH]c5=O)n4)CCC3)cc2)cn1 [Example 173, 3-(3-{1-[4-(2-amino-pyrimidin-5-yl)-phenyl]-cyclobutyl}-1,2,4-oxadiazol-5-yl)-1H-pyridin-2-one]	8.54	< 5.30
COc1cc(-c2nc(C3(c4ccc(-c5cnc(N)nc5)cc4)CCC3)no2)ccn1 [Example 174, 5-(4-{1-[5-(2-Methoxy-pyridin-4-yl)-1,2,4-oxadiazol-3-yl]-cyclobutyl}-phenyl)-pyrimidin-2-ylamine]	8.28	6.29
Cn1cncc1-c1nc(C2(c3ccc(-c4cnc(N)nc4)cc3)CCC2)no1 [Example 176, 5-(4-{1-[5-(3-Methyl-3H-imidazol-4-yl)-1,2,4-oxadiazol-3-yl]-cyclobutyl}-phenyl)-pyrimidin-2-ylamine]	8.25	6.39
NC(=O)c1nc(C2(c3ccc(-c4cnc(N)nc4)cc3)CCC2)no1 [Example 177, 3-{1-[4-(2-Amino-pyrimidin-5-yl)-phenyl]-cyclobutyl}-1,2,4-oxadiazole-5-carboxylic acid amide]	7.01	5.89
Cc1ccc(C(=O)Nc2nc(C3(c4ccc(-c5cnc(N)nc5)cc4)CCC3)no2)cn1 [Example 178, N-(3-{1-[4-(2-Amino-pyrimidin-5-yl)-phenyl]-cyclobutyl}-1,2,4-oxadiazol-5-yl)-6-methyl-nicotinamide]	7.21	< 5.30
Nc1ncc(-c2ccc(C3(c4noc(-c5cccnc5N5CCOCC5)n4)CCC3)cc2)cn1 [Example 179, 5-(4-{1-[5-(2-Morpholin-4-yl-pyridin-3-yl)-1,2,4-oxadiazol-3-yl]-cyclobutyl}-phenyl)-pyrimidin-2-ylamine]	7.92	5.85
Nc1ncc(-c2ccc(C3(c4noc(-c5cc[nH]c(=O)c5)n4)CCC3)cc2)cn1 [Example 184, 4-(3-{1-[4-(2-Amino-pyrimidin-5-yl)-phenyl]-cyclobutyl}-1,2,4-oxadiazol-5-yl)-1H-pyridin-2-one]	8.59	6.85
Cn1cc(-c2nc(C3(c4ccc(-c5cnc(N)nc5)cc4)CCC3)no2)cnc1=O [Example 185, 5-(3-{1-[4-(2-Amino-pyrimidin-5-yl)-phenyl]-cyclobutyl}-1,2,4-oxadiazol-5-yl)-1-methyl-1H-pyrimidin-2-one]	8.14	6.64
N#Cc1ccc(-c2nc(C3(c4ccc(-c5cnc(N)nc5)cc4)CCC3)no2)nc1 [Example 186, 6-(3-{1-[4-(2-Amino-pyrimidin-5-yl)-phenyl]-cyclobutyl}-1,2,4-oxadiazol-5-yl)-nicotinonitrile]	7.92	6.15
Nc1ncc(-c2ccc(C3(c4noc(-c5cnc(Cl)cn5)n4)CCC3)cc2)cn1 [Example 187, 5-(4-{1-[5-(5-chloro-pyrazin-2-yl)-1,2,4-oxadiazol-3-yl]-cyclobutyl}-phenyl)-pyrimidin-2-ylamine]	8.08	5.47
CN(C)C(=O)Cn1cc(-c2nc(C3(c4ccc(-c5cnc(N)nc5)cc4)CCC3)no2)cn1 [Example 188, 2-[4-(3-{1-[4-(2-amino-pyrimidin-5-yl)-phenyl]-cyclobutyl}-1,2,4-oxadiazol-5-yl)-pyrazol-1-yl]-N,N-dimethyl-acetamide]	8.21	7.09
Nc1ncc(-c2ccc(C3(c4noc(-c5cocn5)n4)CCC3)cc2)cn1 [Example 189, 5-{4-[1-(5-Oxazol-4-yl-1,2,4-oxadiazol-3-yl)-cyclobutyl]-phenyl}-pyrimidin-2-ylamine]	8.09	6.51
Nc1ncc(-c2ccc(C3(c4noc(-c5cc(Cl)c[nH]c5=O)n4)CCC3)cc2)cn1 [Example 191, 3-(3-{1-[4-(2-Amino-pyrimidin-5-yl)-phenyl]-cyclobutyl}-1,2,4-oxadiazol-5-yl)-5-chloro-1H-pyridin-2-one]	8.59	< 5.30
Nc1ncc(-c2ccc(C3(c4noc(-c5cnc(N6CCC[C@H]6CO)cn5)n4)CCC3)cc2)cn1 [Example 194, {(S)-1-[5-(3-{1-[4-(2-Amino-pyrimidin-5-yl)-phenyl]-cyclobutyl}-1,2,4-oxadiazol-5-yl)-pyrazin-2-yl]-pyrrolidin-2-yl}-methanol]	8.52	7.07
Nc1ncc(-c2ccc(C3(c4noc(-c5cnc(N6CCC[C@@H]6CO)cn5)n4)CCC3)cc2)cn1 [Example 195, {(R)-1-[5-(3-{1-[4-(2-Amino-pyrimidin-5-yl)-phenyl]-cyclobutyl}-1,2,4-oxadiazol-5-yl)-pyrazin-2-yl]-pyrrolidin-2-yl}-methanol]	8.54	6.85

The next compounds have a higher pIC50 [1] than those just listed; values first:

pIC50 [1]	pIC50 [2]	SMILES
8.68	6.89	Nc1ncc(-c2ccc(C3(c4noc(-c5cccnc5Cl)n4)CCC3)cc2)cn1 [Example 169, 5-(4-{1-[5-(2-Chloro-pyridin-3-yl)-1,2,4-oxadiazol-3-yl]-cyclobutyl}-phenyl)-pyrimidin-2-ylamine]
8.64	6.96	Nc1ncc(-c2ccc(C3(c4noc(-c5cn[nH]c5)n4)CCC3)cc2)cn1 [Example 175, 5-(4-{1-[5-(1H-Pyrazol-4-yl)-1,2,4-oxadiazol-3-yl]-cyclobutyl}-phenyl)-pyrimidin-2-ylamine]
9.07	7.14	Nc1ncc(-c2ccc(C3(c4noc(-c5ccc(NCCO)nc5)n4)CCC3)cc2)cn1 [Example 180, 2-[5-(3-{1-[4-(2-Amino-pyrimidin-5-yl)-phenyl]-cyclobutyl}-1,2,4-oxadiazol-5-yl)-pyridin-2-ylamino]-ethanol]
8.92	7.21	CN(CCO)c1ccc(-c2nc(C3(c4ccc(-c5cnc(N)nc5)cc4)CCC3)no2)cn1 [Example 181, 2-{[5-(3-{1-[4-(2-Amino-pyrimidin-5-yl)-phenyl]-cyclobutyl}-1,2,4-oxadiazol-5-yl)-pyridin-2-yl]-methyl-amino}-ethanol]
8.96	7.40	COCCNc1ccc(-c2nc(C3(c4ccc(-c5cnc(N)nc5)cc4)CCC3)no2)cn1 [Example 182, 5-[4-(1-{5-[6-(2-Methoxy-ethylamino)-pyridin-3-yl]-1,2,4-oxadiazol-3-yl}-cyclobutyl)-phenyl]-pyrimidin-2-ylamine]
9.06	7.28	CCNc1ccc(-c2nc(C3(c4ccc(-c5cnc(N)nc5)cc4)CCC3)no2)cn1 [Example 183, 5-(4-{1-[5-(6-Ethylamino-pyridin-3-yl)-1,2,4-oxadiazol-3-yl]-cyclobutyl}-phenyl)-pyrimidin-2-ylamine]
8.92	7.57	Nc1ncc(-c2ccc(C3(c4noc(-c5ccc6[nH]ncc6c5)n4)CCC3)cc2)cn1 [Example 190, 5-(4-{1-[5-(1H-Indazol-5-yl)-1,2,4-oxadiazol-3-yl]-cyclobutyl}-phenyl)-pyrimidin-2-ylamine]
8.77	< 5.30	Cc1ccc(-c2nc(C3(c4ccc(-c5cnc(N)nc5)cc4)CCC3)no2)c(=O)[nH]1 [Example 192, 3-(3-{1-[4-(2-Amino-pyrimidin-5-yl)-phenyl]-cyclobutyl}-1,2,4-oxadiazol-5-yl)-6-methyl-1H-pyridin-2-one]
8.80	7.35	Nc1cnc(-c2nc(C3(c4ccc(-c5cnc(N)nc5)cc4)CCC3)no2)cn1 [Example 193, 5-(4-{1-[5-(5-Amino-pyrazin-2-yl)-1,2,4-oxadiazol-3-yl]-cyclobutyl}-phenyl)-pyrimidin-2-ylamine]
8.68	7.62	CNc1cnc(-c2nc(C3(c4ccc(-c5cnc(N)nc5)cc4)CCC3)no2)cn1 [Example 196, 5-(4-{1-[5-(5-Methylamino-pyrazin-2-yl)-1,2,4-oxadiazol-3-yl]-cyclobutyl}-phenyl)-pyrimidin-2-ylamine]
8.82	7.32	CC(C)Nc1cnc(-c2nc(C3(c4ccc(-c5cnc(N)nc5)cc4)CCC3)no2)cn1 [Example 197, 5-(4-{1-[5-(5-Isopropylamino-pyrazin-2-yl)-1,2,4-oxadiazol-3-yl]-cyclobutyl}-phenyl)-pyrimidin-2-ylamine]
8.70	7.24	COCCN(C)c1cnc(-c2nc(C3(c4ccc(-c5cnc(N)nc5)cc4)CCC3)no2)cn1 [Example 198, 5-{4-[1-(5-{5-[(2-Methoxy-ethyl)-methyl-amino]-pyrazin-2-yl}-1,2,4-oxadiazol-3-yl)-cyclobutyl]-phenyl}-pyrimidin-2-ylamine]
